According to patent US6627218B2, “Cationic amphiphiles of cholesterol” (The University of Tennessee Research Foundation, priority 1991, dated 2003):
Counter-ions that a name gives are not always drawn.

Experiments:
protein kinase C (PKC) = experiment: Mixed micelle assay of protein kinase C; type: biochemical, rat; settings: pure cationic cholesterol derivative; diolefin, phosphatidyl serine and Ca2+ stimulated PKC; read-out: PKC Inhibition IC50
Protocol: As rapidly as possible, brains for 25 Sprague-Dawley rats (150-200 g) were removed, washed with 100 ml of 20 mM TRIS, 1 mM EDTA, 1 mM EGTA, pH 7.5, and homogenized in 150 ml of ice cold 20 mM TRIS, 10 mM EGTA, 2 mM EDTA, 10 mM DTT, 0.25 M sucrose, 2 mM PMSF and 100 μg/ml leupeptin, pH 7.5. The homogenate was immediately centrifuged at 100,000 g for 40 minutes at 4° C. in a Beckman Ti 50.2 rotor. The supernatant was applied to a 2.5×20 cm column of DEAE Sepharose (fast flow) containing 60 of resin equilibrated with 20 mM TRIS, 1 mM EDTA, 1 mM DTT, pH 7.5 (buffer A). The column was washed with 300 ml of buffer A and an additional 200 ml of buffer A containing 0.03 M KCl. Protein kinase C was eluted with a 500 ml continuous KCl gradient (0.03-0.3 M KCl). Fractions of 5 ml volumes were collected. Fractions showing calcium and phospholipid dependence were pooled; the salt concentration was adjusted to 1.5 KCl with the appropriate quantity of solid KCl. The crude sample containing 1.5 M KCl was stirred for 15 minutes and subsequently loaded onto a 1×10 cm column containing 9 ml Phenyl sepharose equilibrated with 1.5 M KCl in 20 mM TRIS, 0.5 mM EGTA, 1 mM DTT, pH 7.5 (buffer B). The column was washed with 90 ml of buffer B containing 1.5 M KCl. PKC was eluted with a 100 ml continuous KCl gradient (1.5-0 M KCl). Fractions of 3 ml volumes were collected. The column was washed with an additional 50 ml of buffer B. Most of the enzyme activity eluted during this stage. Fractions showing calcium and phospholipid dependence were pooled and concentrated to 4 ml using an Amicon ultrafiltration cell fitted with a YM-10 filter. The concentrated sample was loaded onto a 2.5×100 cm column containing 400 ml of Sephacryl S-200 HR beads equilibrated with buffer B containing 10% glycerol (buffer C). Fractions of 3 ml volumes were collected. About 150 ml of buffer was run through; PKC eluted very close to the column void volume. The fractions showing calcium and phospholipid dependence were pooled and loaded onto a 0.5×5 cm column containing 2.5 ml polylysine agarose equilibrated with buffer C. PKC was eluted with a 40 ml continuous KCl gradient (0-0.8 M KCl). Fractions of 1 ml volumes were collected. The first few active fractions were contaminated. The uncontaminated fractions were pooled, concentrated, and diluted with buffer C to remove the high salt content. After reconcentrating, the sample was divided into working portions, frozen in liquid nitrogen and stored at −80° C. Full activity was regained after rapid thawing. Trace impurities (116 k, 66 k, and 50 k Mr) could still be detected when the gel was silver stained heavily. The enzyme gave a specific activity of 200 nmoles phosphate incorporated per minute per milligram of protein when assayed for histone phosphorylation using the Triton mixed micelle assay with 6.5 mole % phosphatidylserine, 2.5 mole % DAG and 100 μM calcium present. Specific activities ranging from 30 nmoles/min/mg to 600 nmoles/min/mg have been observed for PKC using the Triton mixed micelle assay under the same conditions.
Phosphatidylserine and 1,2-diolefin with and without additive were dissolved in a solution of chloroform/methanol (2:1, v/v). Solvent was evaporated with a stream of nitrogen and last traces removed using a vacuum desiccator at 40° C. The lipid films were then solubilized by the addition of 3% Triton X-100, vortexed vigorously for 30 seconds and then incubated at 30° C. for 10 minutes to allow for equilibration. […]

mouse L929 cells [1] = experiment: Transfection of L929 cells with pUCSV2CAT, CAT activity; type: cell-based; design: Relative CAT Activity: scale not given here; settings: for Relative CAT Activity: dispersion with co-lipid DOPE, plasmid pUCSV2CAT, L929 cells
Protocol: (§1) The cationic cholesterol derivatives of the invention were mixed with a phospholipid co-lipid in chloroform solution at different molar ratios. The solvent was removed by evaporation under a stream of N2 gas and desiccated in vacuo for at least 30 minutes. The dry lipid film was hydrated in 20 mM Hepes buffer, pH 7.8, overnight. The suspension was sonicated in a bath-type sonicator (Laboratory Supplies, Hicksville, N.Y.) to generate small particle dispersions (average diameter=150 nm). The co-lipid is phosphatidylethanolamine.
Plasmid pUCSV2CAT (approximately 5kb in size) containing the structural gene of E. coli chloramphenicol acetyl transferase (CAT) driven by the SV40 virus early promoter was used as a model for the polyanions to be delivered by the cationic lipid dispersions. DNA was mixed with the cationic lipid dispersions of the invention in 1 ml serum-free M199 medium or McCoy's medium to form DNA/lipid complex. Cultured mammalian cells of about 80-100% confluency in a 6-well plate were washed once with serum-free medium. The DNA/lipid complex was added to the washed cells which were incubated at 37° C. for 5 hours. The cells were washed again and the serum-containing medium was added. Cells were harvested 30-72 hours later and extracted for cellular proteins. The CAT activity in the extracted protein was measured by using either [^14C] chloramphenicol or [^3H] acetyl CoA as a radiolabeled substrate. One activity unit of CAT is defined as nmole of radiolabeled substrate converted to the radiolabeled product in one minute. Protein content in the cell extracts was measured by the Bradford (BIORAD) assay.
Plasmid DNA, pUCSV2CAT, was used as a model compound for polyanions because it contains a structural gene for CAT. The efficiency of intracellular delivery can be readily assayed by the expression of CAT activity in the extracted proteins of the treated cells. Table 1 lists the CAT activity of mouse L929 cells which have been transfected with this plasmid DNA as mediated by various cationic lipid dispersions. In addition, the inhibitory activity of the pure cationic cholesterol derivatives on diolefin, phosphatidyl serine (PS), and Ca^2+stimulated protein kinase C was also measured. This activity was expressed as an IC50 which is the concentration at which 50% of PKC activity was inhibited.

[2] = Formation of homogenous dispersion by sonication; type: physicochemical; settings: sonication in low ionic strength buffer
Protocol: as §1
None of the cationic cholesterol derivatives by themselves form stable homogenous dispersion by sonication in a low ionic strength buffer. When stable dispersions are desired, it was necessary to add an acidic or neutral phospholipid to form mixed lipid dispersion. […] In the case of compound XIV, a minimal ration of phosphatidyl choline (PC) or phosphatidyl ethanolamine (PE) to XIV=4:6 is required. Such non-cationic lipid used in the dispersion is called co-lipid.

mouse L929 cells [3] = experiment: Transfection of L929 cells with pUCSV2CAT, CAT activity; type: cell-based; settings: molar ratio 1:1, L929 cells (FIG. 4)

CC(C)CCCC(C)C1CCC2C3CC=C4CC(C(=O)NCC[N+](C)(C)C)CCC4(C)C3CCC12C (stereo not drawn) [IV, Cholesteryl-3β-Carboxyamidoethylenetrimethylammonium Iodide]
IC50 (protein kinase C (PKC)): 12 µM

CC(C)CCCC(C)C1CCC2C3CC=C4CC(OC(=O)CCC(=O)OCCN(C)CC[N+](C)(C)C)CCC4(C)C3CCC12C (stereo not drawn) [XIII, 2-{[2-Trimethylammonio]ethylmethylamino}ethyl-Cholesteryl-3β-Oxysuccinate Iodine Salt]
IC50 (protein kinase C (PKC)): 20 µM

CC(C)CCCC(C)C1CCC2C3CC=C4CC(OC(=O)NCCN(C)C)CCC4(C)C3CCC12C (stereo not drawn) [Compound XIV, 3β[N-(N′,N′-dimethylaminoethane)-carbamoyl]cholesterol]
IC50 (protein kinase C (PKC)): > 1000 µM | Relative CAT Activity (mouse L929 cells [1]): 75

CC(C)CCCC(C)C1CCC2C3CC=C4CC(OC(=O)CCC(=O)NCC[N+](C)(C)C)CCC4(C)C3CCC12C (stereo not drawn) [IX, Cholesteryl-3β-Oxysuccinamidoethylenetrimethylammonium Iodide]
IC50 (protein kinase C (PKC)): 59 µM | Relative CAT Activity (mouse L929 cells [1]): 50

CC(C)CCCC(C)C1CCC2C3CC=C4CC(OC(=O)CCC(=O)OCCN(C)CCN(C)C)CCC4(C)C3CCC12C (stereo not drawn) [XII, 2-{[2-(dimethylamino)ethyl]methylamino}ethyl-Cholesteryl-3β-Oxysuccinate]
IC50 (protein kinase C (PKC)): 164 µM | Relative CAT Activity (mouse L929 cells [1]): 19 | melting point: 50 to 52 °C

3β[N-(polyethyleneimine)-carbamoyl]cholesterol [XV]
Relative CAT Activity (mouse L929 cells [1]): 11

CC(C)CCCC(C)C1CCC2C3CC=C4CC(OC(=O)CCC(=O)NCCN(C)C)CCC4(C)C3CCC12C (stereo not drawn) [VIII, Cholesteryl-3β-oxysuccinamidoethylenedimethylamine]
IC50 (protein kinase C (PKC)): 191 µM | Content of cationic lipid in DOPE dispersion at maximal DNA delivery activity (mouse L929 cells [1]; DOPE co-lipid, L929 cells (FIG. 5)): 20-50% | DNA delivery activity of mixed dispersion (mouse L929 cells [1]; co-lipid DOPE, molar ratio 1:1, L929 cells (FIG. 4)): only DOPE supported the delivery activity | Relative CAT Activity (mouse L929 cells [1]): 100 | Minimal ratio of co-lipid (PC or PE) to cationic lipid required to form a uniform dispersion [2]: 1 part of PC or PE and 9 parts of compound VIII | DNA delivery activity of mixed dispersion (mouse L929 cells [3]; acidic co-lipids PS and PG): None of the acidic lipids, such as PS and phosphatidylglycerol (PG) showed any activity | DNA delivery activity of mixed dispersion (mouse L929 cells [3]; other neutral co-lipids DOPC, N-methyl-DOPE, N,N-dimethyl DOPE): little or no activity

CC(C)CCCC(C)C1CCC2C3CC=C4CC(C(=O)OC(CN(C)C)CN(C)C)CCC4(C)C3CCC12C (stereo not drawn) [Compound V, 1,3-Bis-Dimethylamino-2-Propyl-Cholesteryl-3β-Carboxylate]
IC50 (protein kinase C (PKC)): 643 µM | Relative CAT Activity (mouse L929 cells [1]): 2

CC(C)CCCC(C)C1CCC2C3CC=C4CC(C(=O)OC(CN(C)C)C[N+](C)(C)C)CCC4(C)C3CCC12C (racemic) [Compound VI, 1-Dimethylamino-3-Trimethylammonio-DL-2-Propyl Cholesteryl Carboxylate Iodide Salt]
IC50 (protein kinase C (PKC)): 11 µM

CC(C)CCCC(C)C1CCC2C3CC=C4CC(C(=O)NCCN(C)C)CCC4(C)C3CCC12C (stereo not drawn) [Compound III, Cholesteryl-3β-Carboxyamidoethylenedimethylamine]
IC50 (protein kinase C (PKC)): 258 µM | Relative CAT Activity (mouse L929 cells [1]): 18 | melting point: 167 to 169 °C

CC(C)CCCC(C)C1CCC2C3CC=C4CC(OC(=O)CCC(=O)OC(CN(C)C)C[N+](C)(C)C)CCC4(C)C3CCC12C (racemic) [Compound XI, 1-Dimethylamino-3-Trimethylammonio-DL-2-Propyl-Cholesteryl-3β-Oxysuccinate Iodide Salt]
IC50 (protein kinase C (PKC)): 15 µM

CC(C)CCCC(C)C1CCC2C3CC=C4CC(C(=O)NCCN)CCC4(C)C3CCC12C (stereo not drawn) [Compound VII, Cholesteryl-3β-Carboxyamidoethyleneamine]
IC50 (protein kinase C (PKC)): 246 µM

CC(C)CCCC(C)C1CCC2C3CC=C4CC(OC(=O)CCC(=O)OC(CN(C)C)CN(C)C)CCC4(C)C3CCC12C (stereo not drawn) [Compound X, 1,3-Bi-Dimethylamino-2-Propyl-Cholesteryl-3β-Oxysuccinate]
IC50 (protein kinase C (PKC)): 408 µM | Relative CAT Activity (mouse L929 cells [1]): 0.5
